# Laboratory results reported in patent US20230201216A1, “AZELASTINE AS ANTIVIRAL TREATMENT” (priority 2020, published 2023).
# Where a name gives a salt, the structure may show the parent alone. Read-outs that look alike come from different tables or passages of the source.
# Columns and labels:
# [1] = system: SARS-CoV-2; details: without virus infection; MucilAir
# [2] = system: SARS-CoV-2; format: cell-based; details: for viral particle/μL, co-administration / viral particle/μL, post-infection administration: Vero E6, 48 h post infection, median; for reduction of viral particle numbers (up to): Vero E6
# [3] = system: SARS-CoV-2 B.1.351; format: cell-based
# [4] = system: SARS-CoV-2; details: cells expressing TMPRSS2, including Calu-3; ref. Hoffmann et al.; cited from earlier work
# [5] = system: SARS-CoV-2; format: cell-based; details: for cytopathic effect (CPE) score: Vero E6, MOI 0.1, 48 hours post infection; for protective effect against SARS-CoV-2 cytopathic effect: Vero E6
# [6] = system: influenza H1N1; format: cell-based; details: 24 h post-infection, compared to buffer treated cells
# [7] = system: RANTES; format: cell-based, human
# [8] = system: RSV Long strain; assay: RSV infection of HEp-2 cells, spot count and viral genome copy number by RT-PCR; format: cell-based, Respiratory Syncytial Virus; details: for RSV infection of cells by spot count, compared to vehicle (DMSO) treated controls: all 3 settings, HEp-2
# [9] = system: IL-8; format: cell-based, human
# [10] = system: MucilAir human nasal epithelial cells
# [11] = system: SARS-CoV-2; format: cell-based
molecule,measurement,setting,value
"CN1CCCC(n2nc(Cc3ccc(Cl)cc3)c3ccccc3c2=O)CC1 (centres unmarked) [Azelastine, 4-[(4-chlorophenyl)methyl]-2-(1-methylazepan-4-yl)phthalazin-1-one]",tissue morphology of treated versus control cells,[1],No difference in tissue morphology
same,"viral particle/μL, co-administration",[2]; 3.125 μM,98.4 viral particle/μL
same,"viral particle/μL, post-infection administration",[2]; 3.125 μM,138 viral particle/μL
same,"viral particle/μL, co-administration",[2]; 6.25 μM,15.45 viral particle/μL
same,"viral particle/μL, post-infection administration",[2]; 6.25 μM,68.4 viral particle/μL
same,"viral particle/μL, co-administration",[2]; 12.5 μM,12.25 viral particle/μL
same,"viral particle/μL, post-infection administration",[2]; 12.5 μM,52 viral particle/μL
same,"viral particle/μL, co-administration",[2]; 25 μM,0.2 viral particle/μL
same,"viral particle/μL, post-infection administration",[2]; 25 μM,6.865 viral particle/μL
same,reduction of viral particle numbers (up to),[2]; co-administration (simulating prevention),> 99%
same,reduction of viral particle numbers (up to),[2]; post-infection administration (post-exposure or therapy),> 97%
same,inhibition (low viral numbers),[3],over 90%
CCN(CCO)CCCC(C)Nc1ccnc2cc(Cl)ccc12 (centres unmarked) [Hydroxychloroquine sulfate],potency on cells expressing the surface protease TMPRSS2,[4],significantly loses its potency
Maraviroc,cytopathic effect (CPE) score,[5]; 3.125 μM,4
same,cytopathic effect (CPE) score,[5]; 6.25 μM,4
same,cytopathic effect (CPE) score,[5]; 12.5 μM,3
same,cytopathic effect (CPE) score,[5]; 25 μM,3
same,cytopathic effect (CPE) score,[5]; 50 μM,3
same,protective effect against SARS-CoV-2 cytopathic effect,[5]; higher concentrations (12.5 to 50 μM),only marginal protective effect
same,protective effect against SARS-CoV-2 cytopathic effect,[5]; lower concentrations,not effective at all
CN1CCCC(n2nc(Cc3ccc(Cl)cc3)c3ccccc3c2=O)CC1 (centres unmarked) [Azelastine-HCl],decrease in the viral copy,[6]; 0.01% azelastine-HCl,~0.9 log
same,reduction of viral genome copy,[6]; 0.01% azelastine-HCl,87.4%
same,decrease in the viral copy,[6]; 0.02% azelastine-HCl,~1.9 log
same,reduction of viral genome copy,[6]; 0.02% azelastine-HCl,98.74%
same,RANTES levels compared to buffer control,[7],significantly reduced
same,"RSV infection of cells by spot count, compared to vehicle (DMSO) treated controls",[8]; 3.2 μM,~50%
same,"RSV infection of cells by spot count, compared to vehicle (DMSO) treated controls",[8]; 6.4 μM,~50%
same,Viral genome copy relative to DMSO,"[8]; 6.4 μM, co-administration, experiment #1",46.65%
same,Viral genome copy relative to DMSO,"[8]; 6.4 μM, co-administration, experiment #2",53.22%
same,Viral genome copy relative to DMSO,"[8]; 6.4 μM, preventive, experiment #1",65.52%
same,Viral genome copy relative to DMSO,"[8]; 6.4 μM, preventive, experiment #2",54.71%
same,Viral genome copy relative to DMSO,"[8]; 6.4 μM, therapeutic, experiment #1",47.96%
same,Viral genome copy relative to DMSO,"[8]; 6.4 μM, therapeutic, experiment #2",51.05%
same,IL-8 levels compared to buffer control,[9],significantly reduced
same,cytotoxicity,"[10]; 0.02% concentration, infected cells",no cytotoxicity
same,cytotoxicity,"[10]; 0.02% concentration, non-infected cells",6.5%
same,cytotoxicity,[10]; lower (0.01%) concentration,no cytotoxicity
same,reduction of viral particle numbers,[11],over 90%
same,reduction of viral particle numbers (up to),"[11]; 50 μM, Calu-3, MOI 0.01, 48 h",> 99%
same,cytopathic effect (CPE) score,[5]; 3.125 μM,2
same,cytopathic effect (CPE) score,[5]; 6.25 μM,2
